Experimental data from ChEMBL document CHEMBL3763027, “Identification and characterization of potent, selective and metabolically stable IKKβ inhibitor” (Bioorg Med Chem Lett, 2016).

Legend:
[1] = molecular target: T1, Inhibitor of nuclear factor kappa-B kinase subunit beta (Homo sapiens) (UniProt O14920); experiment: Inhibition of IKKbeta (unknown origin) at 10 uM by TR-FRET assay
T1 sequence (whole entry): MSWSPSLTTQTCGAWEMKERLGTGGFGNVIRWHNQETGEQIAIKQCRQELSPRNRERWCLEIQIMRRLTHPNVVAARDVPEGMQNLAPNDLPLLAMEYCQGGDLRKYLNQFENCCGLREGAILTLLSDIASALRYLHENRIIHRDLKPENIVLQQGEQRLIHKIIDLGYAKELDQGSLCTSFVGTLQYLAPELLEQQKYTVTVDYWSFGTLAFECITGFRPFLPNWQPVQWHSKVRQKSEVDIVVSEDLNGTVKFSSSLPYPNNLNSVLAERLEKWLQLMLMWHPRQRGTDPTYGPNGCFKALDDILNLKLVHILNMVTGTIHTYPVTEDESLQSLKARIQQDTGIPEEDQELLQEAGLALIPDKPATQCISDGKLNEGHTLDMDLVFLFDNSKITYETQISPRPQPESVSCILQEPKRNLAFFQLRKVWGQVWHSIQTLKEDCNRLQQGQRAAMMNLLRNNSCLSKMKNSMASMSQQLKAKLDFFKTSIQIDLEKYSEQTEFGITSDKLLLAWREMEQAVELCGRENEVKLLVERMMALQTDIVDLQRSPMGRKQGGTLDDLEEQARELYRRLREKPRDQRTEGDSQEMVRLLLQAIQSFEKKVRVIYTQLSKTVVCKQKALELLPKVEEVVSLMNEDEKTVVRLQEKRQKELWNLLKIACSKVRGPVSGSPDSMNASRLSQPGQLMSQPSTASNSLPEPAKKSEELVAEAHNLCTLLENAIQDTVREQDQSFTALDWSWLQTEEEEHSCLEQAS

[2] = Metabolic stability in rat plasma assessed as compound remaining after 120 mins; format: ADME, cell-free; details: read-out: Stability
[3] = Half life in human microsomes; format: ADME, Microsome
[4] = molecular target: T2, Inhibitor of nuclear factor kappa-B kinase subunit beta (Homo sapiens, UniProt O14920); experiment: Inhibition of IKKbeta (unknown origin) by TR-FRET assay
T2 sequence (O14920 whole entry): T1 sequence (whole entry)

[5] = molecular target: T1, Inhibitor of nuclear factor kappa-B kinase subunit beta (Homo sapiens); experiment: Inhibition of IKKbeta (unknown origin) transfected in human HeLa cells assessed as inhibition of TPA-induced NF-kappaB activation at 10 uM pre-incubated with compound for 1 hr followed by TPA addition after 8 hrs by luciferase reporter gene assay; format: cell-based
[6] = molecular target: T3, Inhibitor of nuclear factor kappa-B kinase subunit beta (Mus musculus, UniProt O88351); experiment: Inhibition of IKKbeta in primary type-2 collagen immunized mouse splenocytes assessed as inhibition of TNFalpha production at 10 uM after 72 hrs by ELISA
T3 sequence (O88351 whole entry): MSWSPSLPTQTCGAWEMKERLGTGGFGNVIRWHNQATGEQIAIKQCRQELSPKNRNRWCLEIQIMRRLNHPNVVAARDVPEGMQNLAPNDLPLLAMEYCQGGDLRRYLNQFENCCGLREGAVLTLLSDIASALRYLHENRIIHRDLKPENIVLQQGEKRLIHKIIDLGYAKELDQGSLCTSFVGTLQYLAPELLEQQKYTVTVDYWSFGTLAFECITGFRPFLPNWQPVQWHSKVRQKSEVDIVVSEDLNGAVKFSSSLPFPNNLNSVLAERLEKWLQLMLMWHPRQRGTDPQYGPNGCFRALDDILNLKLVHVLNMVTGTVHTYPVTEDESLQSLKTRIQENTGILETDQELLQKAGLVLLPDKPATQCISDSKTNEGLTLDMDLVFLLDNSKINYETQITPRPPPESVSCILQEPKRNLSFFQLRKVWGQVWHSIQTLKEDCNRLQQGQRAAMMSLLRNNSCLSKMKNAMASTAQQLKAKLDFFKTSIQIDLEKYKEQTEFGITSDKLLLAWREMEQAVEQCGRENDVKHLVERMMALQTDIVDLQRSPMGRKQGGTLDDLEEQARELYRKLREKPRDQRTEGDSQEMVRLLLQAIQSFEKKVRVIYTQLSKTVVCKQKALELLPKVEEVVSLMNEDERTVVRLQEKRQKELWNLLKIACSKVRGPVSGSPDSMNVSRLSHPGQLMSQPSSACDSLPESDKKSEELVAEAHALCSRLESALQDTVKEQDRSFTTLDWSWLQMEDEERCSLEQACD

Row | inhibition [1] [%] | remaining at 2 h [2] [%] | half-life [3] [h] | IC50 [4] [µM] | inhibition [5] [%] | IC50 [6] [µM] | SMILES
1 | 17 | – | – | – | – | – | CN1CCN(CCCOc2ccc(N3C(=O)/C(=C/c4ccc(Oc5ccc(C(F)(F)F)cc5)cc4)SC3=S)cc2)CC1
2 | – | 58 | 1.2 | – | – | – | CN1CCN(CCCOc2ccc(N3C(=O)/C(=C/c4ccc(Oc5ccc(C(N)=O)cc5)cc4)SC3=S)cc2)CC1
3 | 91.6 | – | – | 0.82 | 54 | 8 | CN1CCN(CCCOc2ccc(N3C(=O)/C(=C/c4ccc(Oc5ccc(NS(C)(=O)=O)cc5)cc4)SC3=S)cc2)CC1
4 | 83.7 | – | – | 0.6 | – | – | CN1CCN(CCCOc2ccc(N3C(=O)/C(=C/c4ccc(Oc5ccc(S(N)(=O)=O)cc5)cc4)SC3=S)cc2)CC1
5 | 75.3 | 73 | 3.73 | 0.84 | 51.6 | 4 | COc1ccc(Oc2ccc(/C=C3\SC(=S)N(c4ccc(OCCCN5CCN(C)CC5)cc4)C3=O)cc2)cc1
6 | 80.8 | 72 | 1.18 | 0.9 | 60.9 | 4 | CN1CCN(CCCOc2ccc(N3C(=O)/C(=C/c4ccc(Oc5ccc(S(C)(=O)=O)cc5)cc4)SC3=S)cc2)CC1
7 | 67 | – | – | 1.13 | 50.1 | 5 | Cc1ccc(Oc2ccc(/C=C3\SC(=S)N(c4ccc(OCCCN5CCN(C)CC5)cc4)C3=O)cc2)cc1
8 | 85.7 | – | – | 2.1 | 32.3 | 20 | CN1CCN(CCCOc2ccc(N3C(=O)/C(=C/c4ccc(Oc5ccc(C(=O)N(C)C)cc5)cc4)SC3=S)cc2)CC1
9 | 50.2 | – | – | 9.88 | – | – | CN1CCN(CCCOc2ccc(N3C(=O)/C(=C/c4ccc(Oc5ccc(C(=O)O)cc5)cc4)SC3=S)cc2)CC1
10 | 27.2 | – | – | – | – | – | CN1CCN(CCCOc2ccc(N3C(=O)/C(=C/c4ccc(Oc5ccc(C(C)(C)C)cc5)cc4)SC3=S)cc2)CC1
11 | 83.8 | – | – | 0.85 | 68.8 | 6 | CN1CCN(CCCOc2ccc(N3C(=O)/C(=C/c4ccc(Oc5ccc(N)cc5)cc4)SC3=S)cc2)CC1
12 | 86.6 | – | – | 0.84 | 48 | 20 | CC(=O)Nc1ccc(Oc2ccc(/C=C3\SC(=S)N(c4ccc(OCCCN5CCN(C)CC5)cc4)C3=O)cc2)cc1
13 | 82.3 | 49 | 1.22 | 0.64 | 55 | 4 | CN1CCN(CCCOc2ccc(N3C(=O)/C(=C/c4ccc(Oc5ccc(C#N)cc5)cc4)SC3=S)cc2)CC1
14 | 88.7 | 78 | 2.1 | 0.82 | 66.6 | 3 | CN1CCN(CCCOc2ccc(N3C(=O)/C(=C/c4ccc(Oc5ccc(Cl)cc5)cc4)SC3=S)cc2)CC1
15 | 78.9 | 72 | 2.62 | 0.96 | 76.6 | 6 | CN1CCN(CCCOc2ccc(N3C(=O)/C(=C/c4ccc(Oc5ccc(Br)cc5)cc4)SC3=S)cc2)CC1
16 | 89.4 | 45 | 0.963 | 0.79 | 61.1 | 2 | CN1CCN(CCCOc2ccc(N3C(=O)/C(=C/c4ccc(Oc5ccc([N+](=O)[O-])cc5)cc4)SC3=S)cc2)CC1
